Source: patent publication US7279494B2, “Antimicrobial [3.1.0] bicyclohexylphenyl-oxazolidinone derivatives and analogues” (Pfizer Inc., priority 2003, dated 2007)
Converted amounts (≈) assume the structure as drawn. Read-outs that look alike come from different tables or passages of the source.

What was measured:
Type in all cases: cell-based
S. aureus UC9213 = experiment: MIC by standard agar dilution, S. aureus UC9213; conditions: incubated overnight at 35° C.; for MIC: Staphylococcus aureus, UC9213, Mueller Hinton agar
Text: (§1) The in vitro activity of compounds of the subject invention may be assessed by standard testing procedures such as the determination of minimum inhibitory concentration (MIC) by agar dilution as described in “Approved Standard. Methods for Dilution Antimicrobial Susceptibility Tests for Bacteria that Grow Aerobically,” 3rd ed., published 1993 by the National Committee for Clinical Laboratory standards, Villanova, Pa., USA.
(§2) The in vitro MICs of test compounds may be determined by a standard agar dilution method. A stock drug solution of each analog is prepared in a preferred solvent, usually DMSO:H2O (1:3). Serial 2-fold dilutions of each sample are made using 1.0 mL aliquots of sterile distilled water. To each 1.0 mL aliquot of drug is added 9 mL of molten Mueller Hinton agar medium. The drug-supplemented agar is mixed, poured into 15×100 mm petri dishes, and allowed to solidify and dry prior to inoculation.
(§3) Vials of each of the test organisms are maintained frozen in the vapor phase of a liquid nitrogen freezer. Test cultures are grown overnight at 35° C. on the medium appropriate for the organism. Colonies are harvested with a sterile swab, and cell suspensions are prepared in Trypticase Soy broth (TSB) to equal the turbidity of a 0.5 McFarland standard. A 1:20 dilution of each suspension is made in TSB. The plates containing the drug supplemented agar are inoculated with a 0.001 mL drop of the cell suspension using a Steers replicator, yielding approximately 10^4 to 10^5 cells per spot. The plates are incubated overnight at 35° C.
(§4) Following incubation the Minimum Inhibitory Concentration (MIC μg/mL), the lowest concentration of drug that inhibits visible growth of the organism, is read and recorded.

S. pneumoniae UC9912 = experiment: MIC by standard agar dilution, S. pneumoniae UC9912; conditions: incubated overnight at 35° C.; for MIC: Streptococcus pneumoniae, UC9912, Mueller Hinton agar
Text: as §1, §2, §3, §4

H. influenzae 30063 = experiment: MIC by standard agar dilution, H. influenzae 30063
Text: as §1, §2, §3, §4

[1] = Haemophilus influenzae, 30063, agar dilution, Mueller Hinton agar, incubated overnight at 35° C., read-out: H. influenzae 30063 MIC

CC(=O)NC[C@H]1CN(c2ccc([C@H]3[C@@H]4CN(C(=O)C5CC5)C[C@@H]43)c(F)c2)C(=O)O1 [Example 30, N-[((5S)-3-{3-fluoro-4-[exo-(1R,5S)-3-cyclopropanecarbonyl-3-azabicyclo[3.1.0]hex-6-yl]phenyl}-2-oxo-1,3-oxazolidin-5-yl)methyl]acetamide]
MIC (S. aureus UC9213): 4 µg/mL (≈ 9.96 µM)
MIC (S. pneumoniae UC9912): 4 µg/mL (≈ 9.96 µM)
MIC (H. influenzae 30063; [1]): 16 µg/mL (≈ 39.9 µM)

CC(=O)NC[C@H]1CN(c2ccc([C@H]3[C@@H]4CN(C(=O)C(F)F)C[C@@H]43)c(F)c2)C(=O)O1 [Example 34, N-[((5S)-3-{3-fluoro-4-[exo-(1R,5S)-3-difluoroacetyl-3-azabicyclo[3.1.0]hex-6-yl]phenyl}-2-oxo-1,3-oxazolidin-5-yl)methyl]acetamide]
MIC (S. aureus UC9213): 2 µg/mL (≈ 4.86 µM)
MIC (S. pneumoniae UC9912): 1 µg/mL (≈ 2.43 µM)
MIC (H. influenzae 30063; Haemophilus influenzae, 30063, read-out: H. influenzae 30063 MIC): 8 µg/mL (≈ 19.4 µM)

CCC(=O)NC[C@H]1CN(c2ccc([C@H]3[C@@H]4CNC[C@@H]43)c(F)c2)C(=O)O1 [Example 21, N-[((5S)-3-{4-[exo-(1R,5S)-3-azabicyclo[3.1.0]hex-6-yl]-3-fluorophenyl}-2-oxo-1,3-oxazolidin-5-yl)methyl]proyanamide]
MIC (S. aureus UC9213): 4 µg/mL (≈ 11.5 µM)
MIC (S. pneumoniae UC9912): 1 µg/mL (≈ 2.88 µM)
MIC (H. influenzae 30063; [1]): 8 µg/mL (≈ 23 µM)

CCC(=O)NC[C@H]1CN(c2ccc([C@H]3[C@@H]4CN(C=O)C[C@@H]43)c(F)c2)C(=O)O1 [Example 22, N-[((5S)-3-{3-fluoro-4-[exo-(1R,5S)-3-formyl-3-azabicyclo[3.1.0]hex-6-yl]phenyl}-2-oxo-1,3-oxazolidin-5-yl)methyl]propanamide]
MIC (S. aureus UC9213): 1 µg/mL (≈ 2.66 µM)
MIC (S. pneumoniae UC9912): 0.5 µg/mL (≈ 1.33 µM)
MIC (H. influenzae 30063; [1]): 8 µg/mL (≈ 21.3 µM)

O=C(NC[C@H]1CN(c2ccc([C@H]3[C@@H]4CS(=O)(=O)C[C@@H]43)c(F)c2)C(=O)O1)C1CCC1 [Example 57, N-[((5S)-3-{3-fluoro-4-[exo-(1R,5S)-3,3-dioxido-3-thiabicyclo[3.1.0]hex-6-yl]phenyl}-2-oxo-1,3-oxazolidin-5-yl)methyl]cyclobutanecarboxamide]
MIC (S. aureus UC9213): 8 µg/mL (≈ 18.9 µM)
MIC (S. pneumoniae UC9912): 2 µg/mL (≈ 4.73 µM)
MIC (H. influenzae 30063; [1]): 32 µg/mL (≈ 75.7 µM)

N-[((5S)-3-{3-fluoro-4-[exo-(1R,5S)-3-(1-methyl-1H-tetrazol-5-yl)-3-azabicyclo[3.1.0]hex-6-yl]phenyl}-2-oxo-1,3-oxazolidin-5-yl)methyl]acetamide [Example 45]
S. aureus UC9213 MIC (S. aureus UC9213; Mueller Hinton agar): 4 µg/mL
S. pneumoniae UC9912 MIC (S. pneumoniae UC9912; Mueller Hinton agar): 4 µg/mL
H. influenzae 30063 MIC (H. influenzae 30063; agar dilution, Mueller Hinton agar, incubated overnight at 35° C.): 16 µg/mL

CC(=O)NC[C@H]1CN(c2ccc([C@H]3[C@@H]4CS(=O)(=O)C[C@@H]43)cc2)C(=O)O1 [Example 19, N-[((5S)-3-{4-[exo-(1R,5S)-3,3-dioxido-3-thiabicyclo[3.1.0]hex-6-yl]phenyl}-2-oxo-1,3-oxazolidin-5-yl)methyl]acetamide]
MIC (S. aureus UC9213): 4 µg/mL (≈ 11 µM)
MIC (S. pneumoniae UC9912): 1 µg/mL (≈ 2.74 µM)
MIC (H. influenzae 30063; [1]): 8 µg/mL (≈ 22 µM)

CC(=O)NCC(=O)N1C[C@@H]2[C@H](C1)[C@H]2c1ccc(N2C[C@H](CNC(C)=O)OC2=O)cc1F [Example 36, N-[((5S)-3-{3-fluoro-4-[exo-(1R,5S)-3-acetylaminoacetyl-3-azabicyclo[3.1.0]hex-6-yl]phenyl}-2-oxo-1,3-oxazolidin-5-yl)methyl]acetamide]
MIC (S. aureus UC9213): 8 µg/mL (≈ 18.5 µM)
MIC (S. pneumoniae UC9912): 4 µg/mL (≈ 9.25 µM)
MIC (H. influenzae 30063; [1]): 32 µg/mL (≈ 74 µM)

CC(=O)NC[C@H]1CN(c2cc(F)c([C@H]3[C@@H]4CS(=O)(=O)C[C@@H]43)c(F)c2)C(=O)O1 [Example 13, N-[((5S)-3-{4-[exo-(1R,5S)-3,3-dioxido-3-thiabicyclo[3.1.0]hex-6-yl]-3,5-difluorophenyl}-2-oxo-1,3-oxazolidin-5-yl)methyl]acetamide]
MIC (S. aureus UC9213): 1 µg/mL (≈ 2.5 µM)
MIC (S. pneumoniae UC9912): 0.5 µg/mL (≈ 1.25 µM)
MIC (H. influenzae 30063; [1]): 8 µg/mL (≈ 20 µM)

CN/C(=N\C#N)N1C[C@@H]2[C@H](C1)[C@H]2c1ccc(N2C[C@H](CNC(C)=O)OC2=O)cc1F [Example 73, exo-(1R,5S)-N′-cyano-6-(4-{(5S)-5-[(acetylamino)methyl]-2-oxo-1,3-oxazolidin-3-yl}-2-fluorophenyl)-N-methyl-3-azabicyclo[3.1.0]hexane-3-carboximidamide]
MIC (S. aureus UC9213): 2 µg/mL (≈ 4.83 µM)
MIC (S. pneumoniae UC9912): 1 µg/mL (≈ 2.41 µM)
MIC (H. influenzae 30063; [1]): 4 µg/mL (≈ 9.65 µM)

CCC(=O)NC[C@H]1CN(c2cc(F)c([C@H]3[C@@H]4CN(C(N)=O)C[C@@H]43)c(F)c2)C(=O)O1 [Example 63, exo-(1R,5S)-6-(4-{(5S)-5-[(propanoylamino)methyl]-2-oxo-1,3-oxazolidin-3-yl}-2,6-difluorophenyl)-3-azabicyclo[3.1.0]hexane-3-carboxamide]
MIC (S. aureus UC9213): 2 µg/mL (≈ 4.9 µM)
MIC (S. pneumoniae UC9912): 1 µg/mL (≈ 2.45 µM)
MIC (H. influenzae 30063; [1]): 8 µg/mL (≈ 19.6 µM)

CC(=O)NC[C@H]1CN(c2ccc([C@H]3[C@@H]4CN(C=O)C[C@@H]43)c(F)c2)C(=O)O1 [Example 8, N-[((5S)-3-{3-fluoro-4-[exo-(1R,5S)-3-formyl-3-azabicyclo[3.1.0]hex-6-yl]phenyl}-2-oxo-1,3-oxazolidin-5-yl)methyl]acetamide]
MIC (S. aureus UC9213): 4 µg/mL (≈ 11.1 µM)
MIC (S. pneumoniae UC9912): 1 µg/mL (≈ 2.77 µM)
MIC (H. influenzae 30063; [1]): 8 µg/mL (≈ 22.1 µM)

CC(=O)NC[C@H]1CN(c2ccc([C@H]3[C@@H]4CN(CCC#N)C[C@@H]43)c(F)c2)C(=O)O1 [Example 48, N-[((5S)-3-{3-fluoro-4-[exo-(1R,5S)-3-(2-cyanoethyl)-3-azabicyclo[3.1.0]hex-6-yl]phenyl}-2-oxo-1,3-oxazolidin-5-yl)methyl]acetamide]
MIC (S. aureus UC9213): 4 µg/mL (≈ 10.4 µM)
MIC (S. pneumoniae UC9912): 1 µg/mL (≈ 2.59 µM)
MIC (H. influenzae 30063; [1]): 16 µg/mL (≈ 41.4 µM)

CC(=O)NC[C@H]1CN(c2ccc([C@H]3[C@@H]4CN(c5nn[nH]n5)C[C@@H]43)c(F)c2)C(=O)O1 [Example 44, N-[((5S)-3-{3-fluoro-4-[exo-(1R,5S)-3-(2H-tetrazol-5-yl)-3-azabicyclo[3.1.0]hex-6-yl]phenyl}-2-oxo-1,3-oxazolidin-5-yl)methyl]acetamide]
MIC (S. aureus UC9213): 16 µg/mL (≈ 39.9 µM)
MIC (S. pneumoniae UC9912): 32 µg/mL (≈ 79.7 µM)
MIC (H. influenzae 30063; [1]): 64 µg/mL (≈ 159 µM)

O=C(NC[C@H]1CN(c2cc(F)c([C@H]3[C@@H]4CS(=O)(=O)C[C@@H]43)c(F)c2)C(=O)O1)C1CC1 [Example 62]
MIC (S. aureus UC9213): 4 µg/mL (≈ 9.38 µM)
MIC (S. pneumoniae UC9912): 1 µg/mL (≈ 2.34 µM)
MIC (H. influenzae 30063; [1]): 8 µg/mL (≈ 18.8 µM)

CC(=O)NC[C@H]1CN(c2ccc([C@H]3[C@@H]4CN(C(=O)c5cc[nH]n5)C[C@@H]43)c(F)c2)C(=O)O1 [Example 38, N-[((5S)-3-{3-fluoro-4-[exo-(1R,5S)-3-(1H-pyrazole-3-carbonyl)-3-azabicyclo[3.1.0]hex-6-yl]phenyl}-2-oxo-1,3-oxazolidin-5-yl)methyl]acetamide]
MIC (S. aureus UC9213): 2 µg/mL (≈ 4.68 µM)
MIC (S. pneumoniae UC9912): 2 µg/mL (≈ 4.68 µM)
MIC (H. influenzae 30063; [1]): 8 µg/mL (≈ 18.7 µM)

N#CCC(=O)NC[C@H]1CN(c2cc(F)c([C@H]3[C@@H]4C[S+]([O-])C[C@@H]43)c(F)c2)C(=O)O1 (stereo partly drawn) [Example 70, 2-cyano-N-[((5S)-3-{3,5-difluoro-4-[exo-(1R,5S)-3-oxido-3-thiabicyclo[3.1.0]hex-6-yl]phenyl}-2-oxo-1,3-oxazolidin-5-yl)methyl]acetamide]
MIC (S. aureus UC9213): 2 µg/mL (≈ 4.89 µM)
MIC (S. pneumoniae UC9912): 1 µg/mL (≈ 2.44 µM)
MIC (H. influenzae 30063; [1]): 4 µg/mL (≈ 9.77 µM)

CC(=O)NC[C@H]1CN(c2ccc([C@H]3[C@@H]4CN(N(C)C)C[C@@H]43)c(F)c2)C(=O)O1 [Example 49, N-[((5S)-3-{3-fluoro-4-[exo-(1R,5S)-3-dimethylamino-3-azabicyclo[3.1.0]hex-6-yl]phenyl}-2-oxo-1,3-oxazolidin-5-yl)methyl]acetamide]
MIC (S. aureus UC9213): > 64 µg/mL
MIC (S. pneumoniae UC9912): > 64 µg/mL
MIC (H. influenzae 30063; [1]): > 64 µg/mL

CCC(=O)NC[C@H]1CN(c2ccc([C@H]3[C@@H]4CS(=O)(=O)C[C@@H]43)c(F)c2)C(=O)O1 [Example 51, N-[((5S)-3-{4-[exo-(1R,5S)-3,3-dioxido-3-thiabicyclo[3.1.0]hex-6-yl]-3-fluorophenyl}-2-oxo-1,3-oxazolidin-5-yl)methyl]propanamide]
MIC (S. aureus UC9213): 2 µg/mL (≈ 5.04 µM)
MIC (S. pneumoniae UC9912): 1 µg/mL (≈ 2.52 µM)
MIC (H. influenzae 30063; [1]): 8 µg/mL (≈ 20.2 µM)

CC(=O)NC[C@H]1CN(c2ccc([C@H]3[C@@H]4CN(C(=O)CN)C[C@@H]43)c(F)c2)C(=O)O1 [Example 35, N-[((5S)-3-{3-fluoro-4-[exo-(1R,5S)-3-aminoacetyl-3-azabicyclo[3.1.0]hex-6-yl]phenyl}-2-oxo-1,3-oxazolidin-5-yl)methyl]acetamide]
MIC (S. aureus UC9213): 8 µg/mL (≈ 20.5 µM)
MIC (S. pneumoniae UC9912): 2 µg/mL (≈ 5.12 µM)
MIC (H. influenzae 30063; [1]): 16 µg/mL (≈ 41 µM)

CC(=O)NC[C@H]1CN(c2cc(F)c([C@H]3[C@@H]4COC[C@@H]43)c(F)c2)C(=O)O1 [Example 14, N-[((5S)-3-{3,5-difluoro-4-[exo-(1R,5S)-3-oxabicyclo[3.1.0]hex-6-yl]phenyl}-2-oxo-1,3-oxazolidin-5-yl)methyl]acetamide]
MIC (S. aureus UC9213): 2 µg/mL (≈ 5.68 µM)
MIC (S. pneumoniae UC9912): 0.5 µg/mL (≈ 1.42 µM)
MIC (H. influenzae 30063; [1]): 16 µg/mL (≈ 45.4 µM)

CC(=O)NC[C@H]1CN(c2ccc([C@H]3[C@@H]4CN(C(=O)[C@@H](O)C(F)(F)F)C[C@@H]43)c(F)c2)C(=O)O1 [Example 33, N-[((5S)-3-{3-fluoro-4-[exo-(1R,5S)-3-(3,3,3-trifluoro-2-(S)-hydroxypropanoyl)-3-azabicyclo[3.1.0]hex-6-yl]phenyl}-2-oxo-1,3-oxazolidin-5-yl)methyl]acetamide]
MIC (S. aureus UC9213): 2 µg/mL (≈ 4.35 µM)
MIC (S. pneumoniae UC9912): 2 µg/mL (≈ 4.35 µM)
MIC (H. influenzae 30063; [1]): 16 µg/mL (≈ 34.8 µM)
